Measured values as given in US20260014085A1, “MILK DERIVED EXOSOMES AND USES THEREOF” (VIRGINIA TECH INTELLECTUAL PROPERTIES, INC., priority 2022, published 2026).

What was measured:
[1] = system: B5 Clone (High Cx43) MDCK cells; experiment: Scratch wound closure (migration index), B5 Clone (High Cx43) MDCK; assay type: cell-based, canine; conditions: B5 Clone MDCKs, 100 uM Apyrase
Method: FIG. 7A-7L—Milk-Derived Extracellular Vesicles contain endogenous bioactive capabilities in a Scratch-Wounded model of wound healing in Cx43-variable MDCK cells. Cells are cultured to confluency, then scratched in low serum conditions (1% NCS), rinsed, and supplied fresh medium with 20 μg/mL mEV's or 20 uL Vehicle (HEPES buffer). (FIG. 7A) Quantification of wound closure using ImageJ border zone analysis plugin software. Scratches are scanned and imaged at t=0 and scratch size is quantified, then after 8 hours, cells are stopped, fixed and imaged again, then final scratch size is quantified. Migration index is calculated by subtracting the final area from the starting and dividing by the average of vehicle control samples, giving a value of 1.0 for vehicle control. mEV's contain endogenous bioactivity that is Cx43 Dependent, with over 8× healing potential when cells contain enhanced Cx43 levels. […] (FIG. 7G) Quantification of wound closure using ImageJ border zone analysis plugin software. Scratches are scanned and imaged at t=0 and scratch size is quantified, then after 8 hours, cells are stopped, fixed and imaged again, then final scratch size is quantified. […]

[2] = system: B5 Clone (High Cx43) MDCK cells; experiment: mEV uptake in scratch wound model, B5 Clone (High Cx43) MDCK; assay type: cell-based, canine
Method: Cells are cultured to confluency, then scratched in low serum conditions (1% NCS), rinsed, and supplied fresh medium with 20 μg/mL CTDR-Tagged mEV's. […] (FIG. 4B) Unwounded Parent (Low Cx43) MDCKs; (FIG. 4C) Wounded Parent (Low Cx43) MDCKs; (FIG. 4D) Unwounded B5 Clone (High Cx43) MDCKs; (FIG. 4E) Wounded B5 Clone (High Cx43) MDCKs. […] (FIG. 4G) Wounded B5 Clone (High Cx43) MDCKs provided mEV's; (FIG. 4H) Wounded B5 Clone (High Cx43) MDCKs provided mEV's and Gap27, a Connexin inhibitor.
FIG. 5A-5C—Milk-Derived Extracellular Vesicle targeting capabilities to high Cx43 expressing B5 Clone MDCKS are completely eliminated via use of exogenous Apyrase. Cells are cultured to confluency, then scratched in low serum conditions (1% NCS), rinsed, and supplied fresh medium with 20 μg/mL CTDR-Tagged mEV's with or without 100 uM Apyrase. (FIG. 5A) Wounded B5 Clone (High Cx43) given CTDR-Tagged mEV's; (FIG. 5B) Wounded B5 Clone (High Cx43) given CTDR tagged mEV's with 100 µM Apyrase.
The associated bar graph for particle count analysis is shown above in FIG. 4A. […] This insinuates that mEV uptake by cells is mediated by Cx43 in both unwounded and wounded situations, with unwounded B5 clone cells experiencing similar uptake levels to that of wounded Parent Lampe cells (FIG. 4A). Applicant then tested for the mechanism of uptake in these cells—B5 clone cells were scratch wounded and given fluorescently tagged mEV's, then some were also provided with Gap27 (FIG. 4F), a known Connexin channel blocker. When co-incubated with Gap27 (D2), mEV uptake was blocked by over 25% (FIG. 4F) when compared to those untreated. […] Another mechanism of uptake of mEV's in a wounded environment that Applicant has discovered is ATP (FIG. 5A-5C).
Small extracellular vesicles known as exosomes (nanovesicles of less than or equal to 150 nm diameter) are secreted by nearly all cell types and are thought to have key assignments in intercellular signaling. Reports that exosomes evade immune detection, show propensity to cross tissue boundaries (e.g., the blood-brain barrier) and can be orally administered has also attracted increasing interest in therapeutic applications, including as drug delivery devices. Applicant recently developed a method for large-scale purification of bovine milk-derived extracellular vesicles (Marsh et al., Nanotheranostics. 2021 Jul. 5; 5(4):488-498. doi: 10.7150/ntno.62213. eCollection 2021). […] Girao and co-workers determined that Connexin 43 (Cx43) is present in exosomes derived from cultured cells expressing Cx43, where this gap junction protein has assignments in cellular uptake of exosomal cargo (Soares et al., Sci Rep. 2015 Aug. 19; 5:13243. doi: 10.1038/srep13243). […]

Apyrase
mEV wound healing capabilities with exogenous Apyrase [1]: heavily reduced | mEV expression with added apyrase ([2]; wounded B5 Clone (High Cx43) MDCKs, 100 uM Apyrase): significant and complete elimination | reduction in mEV uptake with apyrase ([2]; wounded B5 Clone cells, co-incubated with 100 uM apyrase): > 95%

Gap27: a known Connexin channel blocker (TEKTIFIIFML; UniProt P17302 204-214, looked up, fragment)
mEV uptake blocked when co-incubated with Gap27 ([2]; scratch wounded B5 clone cells, compared to untreated): over 25% | mEV expression with added Gap27 ([2]; wounded B5 Clone (High Cx43) MDCKs): statistical drop
